In patent publication US9624491B2, “Methods and compositions for the detection and treatment of cancer involving miRNAs and miRNA inhibitors and targets” (Memorial Sloan Kettering Cancer Center, priority 2010, dated 2017):

Legend:
NOTCH1-induced T-ALL = test: Mouse model of Notch-ICN (NOTCH1)-induced T-ALL, adoptive transfer of transduced HPCs; assay type: in vivo; conditions: HPCs expressing NOTCH1-ICN plus miRNA or shRNA transplanted into irradiated recipients
Experimental: Can miR-19 drive the development of lymphatic malignancies in vivo? Based on the miR-19 expression and translocation data, miR-19 was assessed in a mouse model of T-ALL (Pear, et al., 1996). Briefly, most cases of T-ALL carry mutations in the Notch1 gene, and, like the […] translocation, these generate the constitutively active intracellular domain of NOTCH1 (Notch-ICN) (Weng, et al., 2004). To test miR-19's ability to promote Notch-ICN-induced T-ALL in vivo, HPCs were adoptively transferred into irradiated recipients (FIG. 3d). […] At the same time, 80% of the mice receiving HPCs expressing only Notch-ICN remained disease free (p=0.0003) (FIG. 3e).
The mouse models of Notch1-induced T-ALL and the EμMyc lymphoma based on adoptive transfer of retrovirally transduced HPCs have been reported (Pear, et al., 1996), (Wendel, et al., 2004). Data were analyzed in Kaplan-Meier format using the log-rank (Mantel-Cox) test for statistical significance. The p53 loss of heterozygosity polymerase chain reaction (LOH PCR) and immunophenotyping by surface marker analysis were as described (Wendel, et al., 2004).
A murine model of NOTCH1-induced T-ALL was used to directly test the oncogenic potential of the most promising miRNAs in vivo. Briefly, HPCs were transduced with NOTCH1 together with either empty vector or an miRNA and transplanted into irradiated, syngeneic recipients. Animals were monitored for leukemia onset by regular blood counts (FIG. 22a). […] Typically, animals receiving HPCs transduced with these miRNAs develop an acute leukemia by 75 days, while >80% of vector controls or animals receiving miR-30 (n=5, p=0.15) remain disease free at this time (FIG. 22b). Based on the in vitro screen and prediction, additional miRNAs were tested. […] Thus, miR-19b, miR-20a, miR-26a, miR-223 and also the less abundant miR-27a and miR-148/152 behave as oncogenes in a murine T-ALL model.
The mouse T-ALL model has been reported (Pear, et al., 1996), (Wendel, et al., 2004). Data were analyzed in Kaplan-Meier format using the log-rank (Mantel-Cox) test for statistical significance. […]

[1] = system: PTEN, BCL2L11, PHF6, IKZF1, NF1, FBXW7; test: 3′UTR reporter, quantitative PCR and immunoblot assays of tumor suppressor genes in murine leukemias; assay type: cell-based; conditions: murine T-ALLs expressing NOTCH1 and miRNA, mRNA, protein
Experimental: Immunoblots of whole cell lysates were performed as described (Wendel, et al., 2004). Antibodies were against Bim/Bcl2l11 (AAP-330, 1:1000, Assay Designs), Nf1 (sc67, 1:100, Santa Cruz), Cdc4/Fbxw7 (ab7405, 1:500, Abeam), Ikzf1 (sc-13039, 1:500, Santa Cruz), Phf6 (NB100-79861, 1:1000, Novus Biologicals), Pten (9559, 1:1000, Cell Signaling), tubulin (1:5000; Sigma, B-5-1-2) and actin (1:5000; Sigma, AC-15).
Total RNA and miRNA-enriched RNA was extracted using the Allprep DNA/RNA/Protein and miRNeasy Mini kits. Pathological diagnosis was by expert hematopathologists at Weill Cornell Medical Center. cDNA synthesis, PCR and analysis by the ΔΔ Ct method were as described (Mavrakis, et al., 2008) and utilized Taqman Gene Expression Assays: Bcl2l11 (Mm00437796_m1), BCL2L11 (Hs00197982_m1), Pten (Mm01212532_m1), PTEN (Hs02621230_s1), Nf1 (Mm00812430_m1), NF1 (Hs01035104_m1), Ikzf1 (Mm01187878_m1), IKZF1 (Hs00172991_m1), Fbxw7 (Mm00504452_m1), FBXW7 (Hs00217794_m1), Phf6 (Mm00804415_m1), and Mouse GAPD (GAPDH) (4352932, Applied Biosystems). Expression was normalized to RNU6B (001093, Applied Biosystems).
The mouse FBXW7 (bp 2793-4139; acc. no. NM_001177773), human NF1 (bp 10033-10666; acc. no NM_000267), human PHF6 (bp position 3271-4299; acc. no. NM_001015877) and Bim (bp. 3155-4773; acc. no. NM_009754) 3′UTR fragments were generated by PCR and cloned into the psi-CHECK-2 vector (Promega) with the exception of the IKZF1 3′UTR, which was purchased from Genecopoeia (cat no. HmiT000397b, by 2343-4471 of UTR). The assays were performed as described (Xiao, et al., 2008).

Substance: miR-148: miRNA, UCAGUGCACUACAGAACUUUGU (SEQ ID NO: 8) (expressed or natural sequence; listed as Homo sapiens)
- leukemia onset / leukemia-free survival (NOTCH1-induced T-ALL): significant disease acceleration
- regulation of tumor suppressor genes [1]: regulate IKZF1, NF1 and FBXW7
